Experiment [1] has as its system rat cortical neurons exposed to Aβ25-35. In words: Effect of receptor ligands on Aβ25-35 induced toxicity (MTT). It is filed as cell-based. The conditions noted are these: ligand 100 µM added 30 min before Aβ25-35 (25 µM, 24 h). The method, then:
(§1) Aβ25-35 and Aβ1-42 were water-soluble peptides, however, while Aβ25-35, the functional domain of Aβ required for both neurotrophic and neurotoxic effects, was directly added to neuronal cultures after its solubilisation, Aβ1-42 was solved in water and maintained for 24 h at 37 °C before its addition to promote its aggregation. To test the effect of mGluR ligands on cell death induced by Aβ in neuronal cultures, these drugs were added 30 min before the addition of Aβ25-35 and maintained during Aβ exposure. Unless otherwise indicated, all chemicals were dissolved in water.
(§2) Cell viability was determined on 96-well plates using an in vitro toxicology assay kit based on a mitochondrial-dependent reaction that transforms 3-[4,5-dimetylthiazol-2-yl]-2,5-diphenyltetrazolium bromide (MTT) into formazan crystals. Briefly, at the end of treatments, cells were incubated in culture medium with MTT solution (5 mg/mL) at 37 °C for 3 h. After incubation, MTT solubilization solution (10% Triton X-100 plus 0.1 M HCl in isopropanol anhydrous) was added into the wells to dissolve formazan crystals and the absorbance of each well was measured at 570 nm and 690 nm, according to the manufacturer’s instructions.

Experiment [2] deals with Group I mGluR/PLC signalling pathway. As to the kind of experiment: Phospholipase C activity (IP3 accumulation), basal and DHPG-stimulated. It counts as cell-based, rat. The conditions noted are these: added 10 min before DHPG, control cells. The method, then:
This method was previously reported and is divided into two well-defined steps: IP3 accumulation: culture medium was discharged, and cells were washed twice with DMEM containing 20 mM HEPES, pH 7.4. After 20 min at 37 °C, different ligands were added to cells for 10 min at 37 °C to analyse their effect on PLC activity in a final reaction volume of 300 μL. The enzymatic reaction was stopped and cells lysed by adding 50 μL 2.8 M perchloric acid and placing plates on ice for 30 min. The medium was neutralized with 70 μ[…] Tris-HCl, 2 M KOH, and 60 mM EGTA, transferred to Eppendorf tubes and centrifuged at 12,000× g for 10 min. The supernatant was then collected to determine the IP3 level. IP3 level determination: IP3 levels in cells were determined as previously reported by Palmer and modified by […] [100]. Incubation of [^3H]IP3 (0.2 pmol; 3000-5000 cpm) in assay buffer (100 mM Tris-HCl, 4 mM EDTA, 4 mM EGTA, 4 mg/mL BSA, pH 9.0), binding protein (500-600 μg), and 25-50 μL of supernatant obtained from IP3 accumulation assay was carried out. Samples were incubated at 4 °C for 60 min and centrifuged at 12,000× g for 10 min. Pellets were suspended in 100 μL 0.2% SDS and transferred to scintillation vials to measure radioactivity. A standard curve was made with known [^3H]IP3 concentrations (0.25-10 μM). Nonspecific binding was determined in the presence of 10 μM unlabeled IP3. Binding protein was obtained from bovine suprarenal capsules according to Palmer's protocol.

The next experiment concerns rat cortical neurons. As to the kind of experiment: MTT reduction cell viability assay after Aβ exposure. As to conditions: 25 µM, 24 h, MTT, positive control. It is filed as cell-based. As for the experimental part: as §1, §2

These results are taken from paper PMC8234864, “Early Effects of the Soluble Amyloid β25-35 Peptide in Rat Cortical Neurons: Modulation of Signal Transduction Mediated by Adenosine and Group I Metabotropic Glutamate Receptors” (International Journal of Molecular Sciences, 2021).

“Also recorded” adds a separate entry of the source.

For the compound `CCNC(=O)[C@H]1O[C@@H](n2cnc3c(N)nc(NCCc4ccc(CCC(=O)O)cc4)nc32)[C@H](O)[C@@H]1O` [CGS21680, 2-[p-(2-carboxyethyl)phenylamino]-50-N-ethylcarboxyamide adenosine], in experiment [1], the “effect on Aβ25-35 induced toxicity” value is reported as “no significant effect”.

As to `OC[C@H]1O[C@@H](n2cnc3c(NC4CCCC4)ncnc32)[C@H](O)[C@@H]1O` [CPA, N^6-cyclopentyladenosine], the “effect on Aβ25-35 induced toxicity” value in experiment [1] was “no significant effect”. As for `N[C@H](C(=O)O)c1cc(O)cc(O)c1` [DHPG, (S)-3,5-dihydroxyphenylglycine], the “effect on Aβ25-35 induced toxicity” value in experiment [1] is on record as “no significant effect”. As to `CCCn1c(=O)c2[nH]c(C3CCCC3)nc2n(CCC)c1=O` [DPCPX, 8-Cyclopentyl-1,3-dipropylxanthine], the “effect on Aβ25-35 induced toxicity” value in experiment [1] is given as “no significant effect; also recorded: ineffective”. In the case of `CO[C@H]1CC[C@@H](C(=O)c2ccc3nc4c(cc3c2)CCCO4)CC1` [JNJ 16259685, (3,4-Dihydro-2H-pyrano[2,3-b]quinolin-7-yl)-(cis-4-methoxycyclohexyl)-methanone], the “effect on DHPG-elicited PLC stimulation” value in experiment [2] (0.5 µM) was “blocked DHPG-elicited PLC stimulation”. As for `Cc1cccc(C#Cc2ccccc2)n1.Cl` [MPEP, 2-Methyl-6-(phenylethynyl)pyridine hydrochloride], the “effect on DHPG-elicited PLC stimulation” value in experiment [2] (1 µM) was “blocked DHPG-elicited PLC stimulation”. `Nc1nc(NCCc2ccc(O)cc2)nc2nc(-c3ccco3)nn12` [ZM241385, 4-(2-[7-Amino-2-(2-furyl) [1,2,4]triazolo [2,3-a] [1,3,5]triazin-5-ylamino]ethyl)phenol]: the “effect on Aβ25-35 induced toxicity” value in experiment [1] is reported as “no significant effect”. For the compound “Aβ1-42: whole amyloid β peptide, kept 24 h at 37 °C to promote aggregation; positive control”, the cell viability result in the experiment with rat cortical neurons is recorded as “decrease in cell viability”.
